Measurements published in US20240336574A1 (LATIGO BIOTHERAPEUTICS, INC., priority 2021, published 2024).
Like-named read-outs stand apart in the source and are kept apart here.

Target: T1, recombinant human NaV1.8 stably transfected HEK cells (Homo sapiens, UniProt Q9Y5Y9)
T1 construct: expressed in transfected cells; host or cells: HEK cells, stably transfected
Experiment: Compound profiling on NaV1.8, human NaV1.8 cell line, SyncroPatch384PE automated patch clamp assay (Example 102, first set of compounds, Table 16)
Format: cell-based
Conditions: human NaV1.8 HEK cells, Table 16 (first set of compounds)
Summary of the method: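 Automated whole-cell patch clamp on HEK cells precultured at 30 °C one day before recording; CsF-based internal, 140 mM NaCl external. 10-point curve, 20–0.001 μM final, 0.1% DMSO, 5 min exposure. IC50 for resting (P1, −120 mV hold) and inactivated (P2, after 10 s at −40 mV) block, normalized to 250 μM tetracaine and DMSO.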

[1] = inactivated state block (P2 measurement), read-out: P2IC50
[2] = resting state block (P1 measurement), read-out: P1IC50

T1 sequence (Q9Y5Y9 whole entry): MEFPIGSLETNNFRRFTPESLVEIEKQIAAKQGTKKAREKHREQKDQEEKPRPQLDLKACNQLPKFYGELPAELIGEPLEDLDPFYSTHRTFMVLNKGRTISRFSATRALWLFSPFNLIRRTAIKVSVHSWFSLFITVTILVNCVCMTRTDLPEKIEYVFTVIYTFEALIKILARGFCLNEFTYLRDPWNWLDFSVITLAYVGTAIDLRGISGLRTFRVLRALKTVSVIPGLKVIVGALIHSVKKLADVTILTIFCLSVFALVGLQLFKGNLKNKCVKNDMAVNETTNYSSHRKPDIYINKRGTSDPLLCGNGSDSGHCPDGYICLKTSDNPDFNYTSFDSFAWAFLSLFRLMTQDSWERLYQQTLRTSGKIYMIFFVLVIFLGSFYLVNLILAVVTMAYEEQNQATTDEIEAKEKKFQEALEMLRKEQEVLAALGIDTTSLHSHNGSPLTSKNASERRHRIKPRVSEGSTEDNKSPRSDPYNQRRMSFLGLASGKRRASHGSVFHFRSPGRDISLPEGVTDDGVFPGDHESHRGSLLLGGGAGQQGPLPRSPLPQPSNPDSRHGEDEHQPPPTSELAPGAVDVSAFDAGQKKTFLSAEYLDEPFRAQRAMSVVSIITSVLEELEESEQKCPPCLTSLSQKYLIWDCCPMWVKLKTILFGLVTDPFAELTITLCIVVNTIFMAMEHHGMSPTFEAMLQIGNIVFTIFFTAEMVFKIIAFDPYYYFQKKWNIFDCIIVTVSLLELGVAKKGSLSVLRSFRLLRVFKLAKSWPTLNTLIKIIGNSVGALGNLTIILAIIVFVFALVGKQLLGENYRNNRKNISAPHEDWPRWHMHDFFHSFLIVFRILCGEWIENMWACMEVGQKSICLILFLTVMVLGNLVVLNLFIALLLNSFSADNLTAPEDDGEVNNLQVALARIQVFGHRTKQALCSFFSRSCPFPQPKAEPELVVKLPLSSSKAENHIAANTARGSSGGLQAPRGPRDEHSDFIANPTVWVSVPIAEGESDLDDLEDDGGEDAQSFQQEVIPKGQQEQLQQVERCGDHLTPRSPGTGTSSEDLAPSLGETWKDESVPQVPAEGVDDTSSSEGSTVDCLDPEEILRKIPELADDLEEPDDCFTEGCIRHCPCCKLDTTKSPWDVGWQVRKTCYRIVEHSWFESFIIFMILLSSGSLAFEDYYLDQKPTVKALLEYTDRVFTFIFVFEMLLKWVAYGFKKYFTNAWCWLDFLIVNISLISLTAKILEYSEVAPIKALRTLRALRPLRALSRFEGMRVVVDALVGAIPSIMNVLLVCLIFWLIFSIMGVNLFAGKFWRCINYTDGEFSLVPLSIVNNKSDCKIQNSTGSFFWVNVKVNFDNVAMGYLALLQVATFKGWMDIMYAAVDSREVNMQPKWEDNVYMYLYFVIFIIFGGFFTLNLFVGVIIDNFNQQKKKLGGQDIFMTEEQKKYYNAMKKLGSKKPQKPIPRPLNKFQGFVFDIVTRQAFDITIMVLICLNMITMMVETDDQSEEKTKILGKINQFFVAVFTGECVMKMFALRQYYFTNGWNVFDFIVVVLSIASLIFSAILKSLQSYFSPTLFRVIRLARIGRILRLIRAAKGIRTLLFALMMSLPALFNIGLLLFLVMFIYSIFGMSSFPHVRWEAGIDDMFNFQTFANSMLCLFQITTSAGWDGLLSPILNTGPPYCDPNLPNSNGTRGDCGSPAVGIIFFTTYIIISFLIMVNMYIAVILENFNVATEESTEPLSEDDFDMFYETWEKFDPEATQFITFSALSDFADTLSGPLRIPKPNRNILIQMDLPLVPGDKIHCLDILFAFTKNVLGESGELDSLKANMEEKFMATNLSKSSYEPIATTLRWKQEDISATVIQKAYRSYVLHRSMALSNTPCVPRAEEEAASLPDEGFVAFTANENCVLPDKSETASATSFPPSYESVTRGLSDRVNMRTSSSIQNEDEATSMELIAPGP

Row | Structure (SMILES) | IC50 [1] | IC50 [2]
1 | CS(=O)(=O)c1cccc(NC(=O)c2cc(C(F)(F)F)cnc2OCC(F)F)c1 [Compound 1663] | 200 to 500 nM | 200 to 500 nM
2 | Cc1cc(Br)ccc1Oc1nnc(C(F)(F)F)c(C)c1C(=O)Nc1ccc(C(N)=O)cc1 [Compound 1402] | 20 to 40 nM | 20 to 40 nM
3 | COc1cc(C#N)ccc1Oc1nnc(C(F)(F)F)c(C)c1C(=O)Nc1cccc(C(=O)N2CC(C#N)C2)c1 [Compound 1442, N-[3-(3-cyanoazetidine-1-carbonyl)phenyl]-3-(4-cyano-2-methoxy-phenoxy)-5-methyl-6-(trifluoromethyl)pyridazine-4-carboxamide] | 200 to 500 nM | 200 to 500 nM
4 | Cc1c(C(F)(F)F)nnc(Oc2ccc(OC(C)C)c(F)c2F)c1C(=O)Nc1cccc(S(C)(=N)=O)c1 (stereo not drawn) [Compound 1501, 3-[2,3-difluoro-4-(propan-2-yloxy)phenoxy]-N-{3-[imino(methyl)oxo-λ^6-sulfanyl]phenyl}-5-methyl-6-(trifluoromethyl)pyridazine-4-carboxamide] | ≤ 20 nM | ≤ 20 nM
5 | Cc1cc(F)ccc1Oc1nnc(C(F)(F)F)c(C)c1C(=O)Nc1cccc(C(N)=O)c1 [Compound 1406] | 40 to 200 nM | 40 to 200 nM
6 | Cc1nc(C(F)(F)F)ccc1Oc1nnc(C(F)(F)F)c(C)c1C(=O)Nc1cccc(S(C)(=O)=O)c1 [Compound 1468, N-(3-methanesulfonylphenyl)-5-methyl-3-{[2-methyl-6-(trifluoromethyl)pyridin-3-yl]oxy}-6-(trifluoromethyl)pyridazine-4-carboxamide] | ≤ 20 nM | ≤ 20 nM
7 | CS(=O)(=O)c1cccc(NC(=O)c2cc(C(F)(F)F)cnc2Oc2cccn3ccnc23)c1 [Compound 1599] | 200 to 500 nM | 200 to 500 nM
8 | COc1cc(C#N)ccc1Oc1nnc(C(F)(F)F)c(C)c1C(=O)Nc1cccc([S@@](C)(=N)=O)c1 (single isomer, unassigned) [Compound 1479] | ≤ 20 nM | ≤ 20 nM
9 | COCCNS(=O)(=O)c1cccc(NC(=O)c2c(Oc3ccc(C#N)cc3OC)nnc(C(F)(F)F)c2C)c1 [Compound 1439, 3-(4-cyano-2-methoxy-phenoxy)-N-[3-(2-methoxyethylsulfamoyl)phenyl]-5-methyl-6-(trifluoromethyl)pyridazine-4-carboxamide] | 40 to 200 nM | 40 to 200 nM
10 | COc1cc(C#N)ccc1Oc1nnc(C(F)(F)F)c(C)c1C(=O)Nc1cccc(C(=O)N2CCNCC2)c1 [Compound 1438, 3-(4-cyano-2-methoxy-phenoxy)-5-methyl-N-[3-(piperazine-1-carbonyl)phenyl]-6-(trifluoromethyl)pyridazine-4-carboxamide] | 40 to 200 nM | 40 to 200 nM
11 | Cc1nc(OC2CCC2)ccc1Oc1nnc(C(F)(F)F)c(C)c1C(=O)Nc1cccc(S(C)(=N)=O)c1 (stereo not drawn) [Compound 1498, 3-[(6-cyclobutoxy-2-methylpyridin-3-yl)oxy]-N-{3-[imino(methyl)oxo-λ^6-sulfanyl]phenyl}-5-methyl-6-(trifluoromethyl)pyridazine-4-carboxamide] | 40 to 200 nM | 40 to 200 nM
12 | Cc1c(C(F)(F)F)nnc(Oc2ccc(OC3CCC3)c(F)c2F)c1C(=O)Nc1cccc(S(C)(=N)=O)c1 (single isomer, unassigned) [Compound 1494, 3-(4-cyclobutoxy-2,3-difluorophenoxy)-N-{3-[imino(methyl)oxo-λ^6-sulfanyl]phenyl}-5-methyl-6-(trifluoromethyl)pyridazine-4-carboxamide] | 20 to 40 nM | ≤ 20 nM
13 | CS(=N)(=O)c1cccc(NC(=O)c2cc(C(F)(F)F)cnc2OC2CC3(C2)CC(F)(F)C3)c1 (stereo not drawn) [Compound 1632] | 200 to 500 nM | 200 to 500 nM
14 | COc1c(Oc2ncc(C(F)(F)F)cc2C(=O)Nc2cccc(C(N)=O)c2)ccc(F)c1F [Compound 1619] | ≤ 20 nM | ≤ 20 nM
15 | Cc1c(Oc2ncc(C(F)(F)F)cc2C(=O)Nc2cccc(S(C)(=N)=O)c2)ccc(OC(F)(F)F)c1F (single isomer, unassigned) [Compound 1715] |  | ≤ 20 nM
16 | COc1cc(C#N)ccc1Oc1ncc(C23CCOCC2C3)cc1C(=O)Nc1cccc(S(C)(=N)=O)c1 (stereo not drawn) [Compound 1725, 2-(4-cyano-2-methoxy-phenoxy)-N-[3-(methylsulfonimidoyl)phenyl]-5-(3-oxabicyclo[4.1.0]heptan-6-yl)pyridine-3-carboxamide] | 200 to 500 nM | 200 to 500 nM
17 | Cc1ccc(Oc2ncc(C(F)(F)F)cc2C(=O)Nc2cccc(C(N)=O)c2)c(OC(F)F)n1 [Compound 1691] | 40 to 200 nM | 40 to 200 nM

Second part, the compound after the results:

Row | IC50 [1] | IC50 [2] | Structure (SMILES)
18 | 20 to 40 nM | 20 to 40 nM | COc1cc(C#N)ccc1Oc1nnc(-c2ccc(C#N)cc2)c(C)c1C(=O)Nc1ccc[n+]([O-])c1 [Compound 1527, 3-(4-cyano-2-methoxy-phenoxy)-6-(4-cyanophenyl)-5-methyl-N-(1-oxidopyridin-1-ium-3-yl)pyridazine-4-carboxamide]
19 | 200 to 500 nM | 200 to 500 nM | COCCNC(=O)c1cccc(NC(=O)c2c(Oc3ccc(C#N)cc3OC)nnc(C(F)(F)F)c2C)c1 [Compound 1443, 3-(4-cyano-2-methoxy-phenoxy)-N-[3-(2-methoxyethylcarbamoyl)phenyl]-5-methyl-6-(trifluoromethyl)pyridazine-4-carboxamide]
20 |  | ≤ 20 nM | Cc1c(C(F)(F)F)nnc(Oc2ccc(OC(F)(F)F)c(F)c2F)c1C(=O)Nc1cccc(S(C)(=N)=O)c1 (single isomer, unassigned) [Compound 1478, 3-[2,3-difluoro-4-(trifluoromethoxy)phenoxy]-5-methyl-N-[3-(methylsulfonimidoyl)phenyl]-6-(trifluoromethyl)pyridazine-4-carboxamide]
21 | ≤ 20 nM | ≤ 20 nM | COc1c(Oc2nccc(C(F)(F)F)c2C(=O)Nc2cccc(S(C)(=N)=O)c2)ccc(F)c1F (stereo not drawn) [Compound 1651]
22 | 200 to 500 nM | 200 to 500 nM | COc1cc(C#N)ccc1Oc1nnc(-c2ccc(C)cn2)c(C)c1C(=O)Nc1cccc(S(C)(=N)=O)c1 (stereo not drawn) [Compound 1464, 3-(4-cyano-2-methoxy-phenoxy)-5-methyl-6-(5-methyl-2-pyridyl)-N-[3-(methylsulfonimidoyl)phenyl]pyridazine-4-carboxamide]
23 | 200 to 500 nM | 200 to 500 nM | CS(=N)(=O)c1cccc(NC(=O)c2cc(C(F)(F)F)cnc2Oc2ccc(C(F)F)nc2)c1 (stereo not drawn) [Compound 1674]
24 | 20 to 40 nM | 20 to 40 nM | COc1cc(C#N)ccc1Oc1nnc(-c2ccc(C(F)F)cc2)c(C)c1C(=O)Nc1cccc([S@](C)(=N)=O)c1 [Compound 1534, 3-(4-cyano-2-methoxyphenoxy)-6-[4-(difluoromethyl)phenyl]-N-{3-[(R)-imino(methyl)oxo-λ^6-sulfanyl]phenyl}-5-methylpyridazine-4-carboxamide]
25 | 20 to 40 nM | 20 to 40 nM | COc1c(Oc2nccc(C(F)(F)F)c2C(=O)Nc2cccc(C(N)=O)c2)ccc(F)c1F [Compound 1652]
26 | 200 to 500 nM | 200 to 500 nM | NC(=O)c1cccc(NC(=O)c2cc(C(F)(F)F)cnc2OC2CC3C(C2)C3(F)F)c1 (stereo not drawn) [Compound 1677]
27 | 200 to 500 nM | 200 to 500 nM | COc1c(Oc2ncc(C(F)(F)F)cc2C(=O)NC23CC(C(N)=O)(C2)C3)ccc(F)c1F [Compound 1722, N-(3-carbamoyl-1-bicyclo[1.1.1]pentanyl)-2-(3,4-difluoro-2-methoxy-phenoxy)-5-(trifluoromethyl)pyridine-3-carboxamide]
28 |  | ≤ 20 nM | COc1cc(Cl)ccc1Oc1nnc(C(F)(F)F)c(C)c1C(=O)Nc1cccc(S(C)(=N)=O)c1 (single isomer, unassigned) [Compound 1482, 3-(4-chloro-2-methoxyphenoxy)-5-methyl-N-(3-(S-methylsulfonimidoyl)phenyl)-6-(trifluoromethyl)pyridazine-4-carboxamide]
29 | 200 to 500 nM | 200 to 500 nM | Cc1cc(F)ccc1Oc1nnc(C(C)O)c(C)c1C(=O)Nc1cccc(S(C)(=N)=O)c1 (stereo not drawn) [Compound 1547, 3-(4-fluoro-2-methyl-phenoxy)-6-(1-hydroxyethyl)-5-methyl-N-[3-(methylsulfonimidoyl)phenyl]pyridazine-4-carboxamide]
30 | 20 to 40 nM | 20 to 40 nM | COc1cc(C#N)ccc1Oc1nnc(-c2cncn2C)c(C)c1C(=O)Nc1cccc(S(C)(=N)=O)c1 (stereo not drawn) [Compound 1447, 3-(4-cyano-2-methoxy-phenoxy)-5-methyl-6-(3-methylimidazol-4-yl)-N-[3-(methylsulfonimidoyl)phenyl]pyridazine-4-carboxamide]
31 | 20 to 40 nM | ≤ 20 nM | CC(C)Oc1ccc(Oc2ncc(C(F)(F)F)cc2C(=O)Nc2cccc(C(N)=O)c2)c(F)c1F [Compound 1709]
32 | ≤ 20 nM | ≤ 20 nM | Cc1cc(F)ccc1Oc1ncc(Br)c(C)c1C(=O)Nc1cccc([S@@](C)(=N)=O)c1 [Compound 1728, 5-bromo-2-(4-fluoro-2-methylphenoxy)-N-{3-[(S)-imino(methyl)oxo-λ^6-sulfanyl]phenyl}-4-methylpyridine-3-carboxamide]
33 | ≤ 20 nM | ≤ 20 nM | COc1cc(C#N)ccc1Oc1nnc(-c2ccc(C(F)F)cc2)c(C)c1C(=O)Nc1cccc(S(C)(=N)=O)c1 (stereo not drawn) [Compound 1453, 3-(4-cyano-2-methoxy-phenoxy)-6-[4-(difluoromethyl)phenyl]-5-methyl-N-[3-(methylsulfonimidoyl)phenyl]pyridazine-4-carboxamide]
34 |  | ≤ 20 nM | CS(=N)(=O)c1cccc(NC(=O)c2cc(C(F)(F)F)cnc2Oc2cccnc2OC(F)(F)F)c1 (single isomer, unassigned) [Compound 1643]
35 | 200 to 500 nM | 200 to 500 nM | CS(=O)(=O)c1cccc(NC(=O)c2cc(C(F)(F)F)cnc2OC2CCOC2)c1 (stereo not drawn) [Compound 1662]
